Test results taken from patent US20250195521A1 (Revolution Medicines, Inc., priority 2020, published 2025).
Where two headings read alike, the source gives them in different places.

Legend:
[1] = molecular target: KRAS WT (Homo sapiens (Human), UniProt P01116+P62937); experiment: Ras-Raf disruption/FRET/MOA assay, KRAS WT; format: biochemical; conditions: read-out: KRAS WT FRET IC50
Text: (§1) Disruption of B-Raf Ras-Binding Domain (BRAF^RBD) Interaction with K-Ras by Compounds of the Invention (Also Called a FRET Assay or an MOA Assay)
(§2) Note—The following protocol describes a procedure for monitoring disruption of K-Ras G12C (GMP-PNP) binding to BRAF^RBD by a compound of the invention. This protocol may also be executed substituting other Ras proteins or nucleotides, such as K-Ras G12D and K-Ras G13D.
(§3) The purpose of this biochemical assay was to measure the ability of test compounds to facilitate ternary complex formation between a nucleotide-loaded K-Ras isoform and Cyclophilin A; the resulting ternary complex disrupts binding to a BRAF^RBD construct, inhibiting K-Ras signaling through a RAF effector. Data is reported as IC50 values.
(§4) In assay buffer containing 25 mM HEPES pH 7.3, 0.002% Tween20, 0.1% BSA, 100 mM NaCl and 5 mM MgCl2, tagless Cyclophilin A, His6-K-Ras-GMPPNP, and GST-BRAF^RBD were combined in a 384-well assay plate at final concentrations of 25 μM, 12.5 nM, and 50 nM, respectively. Compound was present in plate wells as a 10-point 3-fold dilution series starting at a final concentration of 30 μM. After incubation at 25° C. for 3 hours, a mixture of anti-His Eu—W1024 and anti-GST allophycocyanin was then added to assay sample wells at final concentrations of 10 nM and 50 nM, respectively, and the reaction incubated for an additional 1.5 hours. […] Compounds that facilitate disruption of a K-Ras: RAF complex were identified as those eliciting a decrease in the TR-FRET ratio relative to DMSO control wells.

[2] = molecular target: KRAS G13C (Homo sapiens (Human), UniProt P01116+P62937, G13C); experiment: Ras-Raf disruption/FRET/MOA assay, KRAS G13C; format: biochemical; conditions: read-out: KRAS G13C FRET IC50
Chain of KRAS G13C (P01116 other isoform, or with tags, fused parts or gaps G13C): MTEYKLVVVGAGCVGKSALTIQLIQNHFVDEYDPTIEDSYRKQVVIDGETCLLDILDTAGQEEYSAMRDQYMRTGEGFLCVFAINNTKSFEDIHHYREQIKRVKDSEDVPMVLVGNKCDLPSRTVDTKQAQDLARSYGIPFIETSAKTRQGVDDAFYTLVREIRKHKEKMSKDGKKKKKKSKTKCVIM
Chain of KRAS G13C (P62937 whole entry): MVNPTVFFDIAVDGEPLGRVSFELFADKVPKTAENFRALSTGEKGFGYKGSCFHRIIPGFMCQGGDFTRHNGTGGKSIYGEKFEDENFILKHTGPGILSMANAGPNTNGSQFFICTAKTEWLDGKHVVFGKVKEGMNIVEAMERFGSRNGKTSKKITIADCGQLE
Text: as §1, §2, §3, §4

[3] = molecular target: NRAS G12C (Homo sapiens (Human), UniProt P01111+P62937, G12C); experiment: Ras-Raf disruption/FRET/MOA assay, NRAS G12C; format: biochemical; conditions: read-out: NRAS G12C FRET data IC50
Chain of NRAS G12C (P01111 whole entry G12C): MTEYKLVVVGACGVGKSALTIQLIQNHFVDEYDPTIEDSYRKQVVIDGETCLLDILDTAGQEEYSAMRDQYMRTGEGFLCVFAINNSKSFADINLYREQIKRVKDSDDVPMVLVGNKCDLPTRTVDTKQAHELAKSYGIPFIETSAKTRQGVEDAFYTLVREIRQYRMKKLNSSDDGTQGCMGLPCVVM
Chain of NRAS G12C (P62937 whole entry): as the sequence (P62937 whole entry) above
Text: as §1, §2, §3, §4

[4] = molecular target: KRAS G12S (Homo sapiens (Human), UniProt P01116+P62937, G12S); experiment: Ras-Raf disruption/FRET/MOA assay, KRAS G12S; format: biochemical; conditions: read-out: KRAS G12S FRET IC50
Chain of KRAS G12S (P01116 other isoform, or with tags, fused parts or gaps G12S): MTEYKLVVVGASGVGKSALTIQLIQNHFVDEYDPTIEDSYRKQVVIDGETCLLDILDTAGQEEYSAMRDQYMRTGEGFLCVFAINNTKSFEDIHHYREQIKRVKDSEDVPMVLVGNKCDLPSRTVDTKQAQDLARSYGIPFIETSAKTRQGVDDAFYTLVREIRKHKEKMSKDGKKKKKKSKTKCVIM
Chain of KRAS G12S (P62937 whole entry): as the sequence (P62937 whole entry) above
Text: as §1, §2, §3, §4

[5] = molecular target: KRAS G12C (Homo sapiens (Human), UniProt P01116+P62937, G12C); experiment: Ras-Raf disruption/FRET/MOA assay, KRAS G12C; format: biochemical; conditions: read-out: KRAS G12C FRET data IC50
Chain of KRAS G12C (P01116-2 other isoform, or with tags, fused parts or gaps G12C): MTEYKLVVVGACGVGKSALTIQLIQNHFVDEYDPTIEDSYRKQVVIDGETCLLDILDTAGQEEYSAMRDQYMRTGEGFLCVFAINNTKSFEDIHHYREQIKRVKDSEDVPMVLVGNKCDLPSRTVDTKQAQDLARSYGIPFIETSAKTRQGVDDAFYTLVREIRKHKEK
Chain of KRAS G12C (P62937 whole entry): as the sequence (P62937 whole entry) above
Text: as §1, §2, §3, §4

[6] = molecular target: KRAS G12D (Homo sapiens (Human), UniProt P01116+P62937, G12D); experiment: Ras-Raf disruption/FRET/MOA assay, KRAS G12D; format: biochemical; conditions: read-out: KRAS G12D FRET IC50
Chain of KRAS G12D (P01116 other isoform, or with tags, fused parts or gaps G12D): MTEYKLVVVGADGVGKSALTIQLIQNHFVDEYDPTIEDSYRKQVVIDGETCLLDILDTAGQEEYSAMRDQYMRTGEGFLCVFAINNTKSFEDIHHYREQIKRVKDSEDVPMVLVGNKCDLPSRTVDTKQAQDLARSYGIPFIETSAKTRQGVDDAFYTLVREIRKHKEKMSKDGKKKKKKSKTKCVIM
Chain of KRAS G12D (P62937 whole entry): as the sequence (P62937 whole entry) above
Text: as §1, §2, §3, §4

[7] = molecular target: KRAS G12V (Homo sapiens (Human), UniProt P01116+P62937, G12V); experiment: Ras-Raf disruption/FRET/MOA assay, KRAS G12V; format: biochemical
Chain of KRAS G12V (P01116 other isoform, or with tags, fused parts or gaps G12V): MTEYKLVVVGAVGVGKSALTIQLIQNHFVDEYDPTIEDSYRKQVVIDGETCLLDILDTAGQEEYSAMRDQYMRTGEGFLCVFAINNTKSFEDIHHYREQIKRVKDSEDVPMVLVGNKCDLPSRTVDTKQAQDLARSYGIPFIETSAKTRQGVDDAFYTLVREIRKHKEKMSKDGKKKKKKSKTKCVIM
Chain of KRAS G12V (P62937 whole entry): as the sequence (P62937 whole entry) above
Text: as §1, §2, §3, §4

[8] = molecular target: KRAS G13D (Homo sapiens (Human), UniProt P01116+P62937, G13D); experiment: Ras-Raf disruption/FRET/MOA assay, KRAS G13D; format: biochemical; conditions: read-out: KRAS G13D FRET IC50
Chain of KRAS G13D (P01116 other isoform, or with tags, fused parts or gaps G13D): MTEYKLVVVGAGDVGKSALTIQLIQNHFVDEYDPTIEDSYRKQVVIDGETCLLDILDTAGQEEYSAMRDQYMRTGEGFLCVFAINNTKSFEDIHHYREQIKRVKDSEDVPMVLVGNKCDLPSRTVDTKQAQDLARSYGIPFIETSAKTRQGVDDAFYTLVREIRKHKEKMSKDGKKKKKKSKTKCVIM
Chain of KRAS G13D (P62937 whole entry): as the sequence (P62937 whole entry) above
Text: as §1, §2, §3, §4

[9] = tested on: AsPC-1 (K-Ras G12D); experiment: CellTiter-Glo cell viability assay, AsPC-1; format: cell-based, human; conditions: Homo sapiens, ASPC1, 120 h, read-out: AsPC-1 Cell Viability IC50
Outline: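 Viability measured by CellTiter-Glo luminescence on day 5 following direct addition of compound to plated cells. Values expressed as percent of mean DMSO signal; curves fitted with a four-parameter logistic model.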

[10] = tested on: AsPC-1 (K-Ras G12D); experiment: Potency assay: pERK; format: cell-based, human; conditions: Homo sapiens, ASPC1, read-out: pERK EC50
Outline: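 pERK decrease measured after 4 h compound treatment at 37 °C (10 three-fold dilutions, duplicate wells), by either fixed-cell In-Cell Western with DRAQ5 counterstain or AlphaLISA on lysates. Signal fitted against log concentration with a four-parameter model to give IC50.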

[11] = tested on: NCI-H358 (K-Ras G12C); experiment: CellTiter-Glo cell viability assay, H358; format: cell-based, human; conditions: Homo sapiens, NCI-H358, 120 h, read-out: H358 Cell Viability IC50, K-Ras G12C, 5-day treatment
Description: Note—The following protocol describes a procedure for monitoring cell viability of K-Ras mutant cancer cell lines in response to a compound of the invention. Other RAS isoforms may be employed, though the number of cells to be seeded will vary based on cell line used.
Test compounds (132.5 nL) were directly dispensed into the assay plates containing cells. […] On day 5, assay plates and their contents were equilibrated to room temperature for approximately 30 minutes. […] Luminescence was measured using the PerkinElmer Enspire. Data were normalized by the following: (Sample signal/Avg. DMSO)*100. The data were fit using a four-parameter logistic fit.

Chain of KRAS WT (P01116 other isoform, or with tags, fused parts or gaps): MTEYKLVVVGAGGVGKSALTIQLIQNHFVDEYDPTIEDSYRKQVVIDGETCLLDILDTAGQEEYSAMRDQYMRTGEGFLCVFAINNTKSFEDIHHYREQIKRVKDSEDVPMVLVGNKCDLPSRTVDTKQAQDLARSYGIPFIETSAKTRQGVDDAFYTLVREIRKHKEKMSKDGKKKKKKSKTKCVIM
Chain of KRAS WT (P62937 whole entry, the tested form may be a part): as the sequence (P62937 whole entry) above

| Compound | IC50 [9] [nM] | EC50 [10] [nM] | IC50 [11] [nM] | also measured |
| --- | --- | --- | --- | --- |
| CCn1c(-c2cccnc2[C@@H](C)OC)c2c3cc(ccc31)-c1cc(O)cc(c1)C[C@H](NC(=O)[C@H](C(C)C)N(C)C(=O)[C@H]1CCN(C(=O)[C@H]3CN3)C1)C(=O)N1CCC[C@H](N1)C(=O)OCC(C)(C)C2 (atropisomer, axis not shown) [Example 43B] | – | – | – | IC50 [1]: 1000 to 10000 nM |
| CCn1c(-c2cnccc2COC)c2c3cc(ccc31)-c1cc(O)cc(c1)C[C@H](NC(=O)[C@H](C(C)C)N(C)C(=O)CCN(C)C(=O)[C@H]1CN1)C(=O)N1CCC[C@H](N1)C(=O)OCC(C)(C)C2 (single isomer, unassigned) [Example 41] | – | – | – | IC50 [2]: 10 to 100 nM; IC50 [3]: < 10 nM; IC50 [4]: 100 to 1000 nM; IC50 [5]: < 10 nM; IC50 [6]: 100 to 1000 nM; IC50 ([7]; read-out: KRAS G12V FRET IC50): 100 to 1000 nM; IC50 [8]: 100 to 1000 nM; IC50 [1]: 100 to 1000 nM |
| CCn1c(-c2cccnc2[C@H](C)OC)c2c3cc(ccc31)-c1cccc(c1)C[C@H](NC(=O)[C@H](C(C)C)N(C)C(=O)CCN=C=NCc1ccccc1OC)C(=O)N1CCC[C@H](N1)C(=O)OCC(C)(C)C2 [Example 73] | – | – | – | IC50 ([7]; read-out: KRAS G12V FRET IC50): 1000 to 10000 nM |
| CCn1c(-c2cccnc2[C@H](C)OC)c2c3cc(ccc31)-c1cccc(c1)C[C@H](NC(=O)[C@H](C(C)C)N(C)C(=O)[C@H]1CC[C@H](N=C=NCc3ccccc3OC)C1)C(=O)N1CCC[C@H](N1)C(=O)OCC(C)(C)C2 [Example 76] | – | – | – | IC50 ([7]; read-out: KRAS G12V FRET IC50): 1000 to 10000 nM |
| CCn1c(-c2cccnc2[C@H](C)OC)c2c3cc(ccc31)-c1cccc(c1)C[C@H](NC(=O)[C@H](C(C)C)N(C)C(=O)[C@H]1CC[C@H](N=C=NC(C)(C)C)C1)C(=O)N1CCC[C@H](N1)C(=O)OCC(C)(C)C2 [Example 125] | – | – | – | IC50 ([7]; read-out: KRAS G12V FRET IC50): 1000 to 10000 nM |
| CC[C@@H]1N[C@@H]1C(=O)N(C)CC(=O)N(C)[C@H](C(=O)N[C@H]1Cc2cc(O)cc(c2)-c2ccc3c(c2)c(c(-c2cccnc2[C@H](C)OC)n3CC)CC(C)(C)COC(=O)[C@@H]2CCCN(N2)C1=O)C(C)C [Example 263] | 100 to 1000 | < 5000 | 10 to 100 | – |
| CCn1c(-c2cccnc2[C@H](C)OC)c2c3cc(ccc31)-c1cc(O)cc(c1)C[C@H](NC(=O)[C@H](C(C)C)N(C)C(=O)CN(C)C(=O)[C@@H]1N[C@@H]1C(C)C)C(=O)N1CCC[C@H](N1)C(=O)OCC(C)(C)C2 [Example 264] | 100 to 1000 | < 5000 | 10 to 100 | – |
| CCn1c(-c2cccnc2[C@H](C)OC)c2c3cc(ccc31)-c1cc(O)cc(c1)C[C@H](NC(=O)[C@H](C(C)C)N(C)C(=O)CN(C)C(=O)[C@H]1N[C@H]1C(C)C)C(=O)N1CCC[C@H](N1)C(=O)OCC(C)(C)C2 [Example 265] | 100 to 1000 | < 5000 | 10 to 100 | – |
| CCn1c(-c2cccnc2[C@H](C)OC)c2c3cc(ccc31)-c1cc(O)cc(c1)C[C@H](NC(=O)[C@H](C(C)C)N(C)C(=O)CN(C)C(=O)[C@H]1CN1CC(=O)N(C)C)C(=O)N1CCC[C@H](N1)C(=O)OCC(C)(C)C2 (stereo partly shown) [Example 270] | 100 to 1000 | < 5000 | 10 to 100 | – |
| CCn1c(-c2cccnc2[C@H](C)OC)c2c3cc(ccc31)-c1cc(O)cc(c1)C[C@H](NC(=O)[C@H](C(C)C)N(C)C(=O)CN(C)C(=O)[C@H]1CN1CCCC#N)C(=O)N1CCC[C@H](N1)C(=O)OCC(C)(C)C2 (stereo partly shown) [Example 273] | 100 to 1000 | < 5000 | < 10 | – |
| CCn1c(-c2cccnc2[C@H](C)OC)c2c3cc(ccc31)-c1cc(O)cc(c1)C[C@H](NC(=O)[C@H](C(C)C)N(C)C(=O)CN(C)C(=O)[C@@H]1CN1CCCC#N)C(=O)N1CCC[C@H](N1)C(=O)OCC(C)(C)C2 (stereo partly shown) [Example 274] | 100 to 1000 | < 5000 | < 10 | – |
| CCn1c(-c2cccnc2[C@H](C)OC)c2c3cc(ccc31)-c1cc(O)cc(c1)C[C@H](NC(=O)[C@H](C(C)C)N(C)C(=O)CN(C)C(=O)[C@@H]1CN1C1COC1)C(=O)N1CCC[C@H](N1)C(=O)OCC(C)(C)C2 (stereo partly shown) [Example 276] | 1000 to 10000 | < 5000 | 10 to 100 | – |
| CCn1c(-c2cccnc2[C@H](C)OC)c2c3cc(ccc31)-c1cc(O)cc(c1)C[C@H](NC(=O)[C@H](C(C)C)N(C)C(=O)CN(C)C(=O)[C@H]1CN1CC1COC1)C(=O)N1CCC[C@H](N1)C(=O)OCC(C)(C)C2 (stereo partly shown) [Example 277] | 100 to 1000 | < 5000 | 10 to 100 | – |
| CCn1c(-c2cccnc2[C@H](C)OC)c2c3cc(ccc31)-c1cc(O)cc(c1)C[C@H](NC(=O)[C@H](C(C)C)N(C)C(=O)CN(C)C(=O)[C@H]1CN1CC1(C)COC1)C(=O)N1CCC[C@H](N1)C(=O)OCC(C)(C)C2 (stereo partly shown) [Example 279] | 100 to 1000 | < 5000 | < 10 | – |
| CCn1c(-c2cccnc2[C@H](C)OC)c2c3cc(ccc31)-c1cc(O)cc(c1)C[C@H](NC(=O)[C@H](C(C)C)N(C)C(=O)CN(C)C(=O)[C@@H]1CN1CC1(C)COC1)C(=O)N1CCC[C@H](N1)C(=O)OCC(C)(C)C2 (stereo partly shown) [Example 280] | 1000 to 10000 | < 5000 | < 10 | – |
| CCn1c(-c2cccnc2[C@H](C)OC)c2c3cc(ccc31)-c1cc(O)cc(c1)C[C@H](NC(=O)[C@H](C(C)C)N(C)C(=O)CN(C)C(=O)[C@@H]1N[C@H]1C1COC1)C(=O)N1CCC[C@H](N1)C(=O)OCC(C)(C)C2 [Example 283] | 100 to 1000 | < 5000 | 10 to 100 | – |
| CCn1c(-c2cccnc2[C@H](C)OC)c2c3cc(ccc31)-c1cc(O)cc(c1)C[C@H](NC(=O)[C@H](C(C)C)N(C)C(=O)CN(C)C(=O)[C@@H]1N[C@@H]1C1CCC1)C(=O)N1CCC[C@H](N1)C(=O)OCC(C)(C)C2 [Example 287] | 100 to 1000 | < 5000 | 10 to 100 | – |
| CCn1c(-c2cccnc2[C@H](C)OC)c2c3cc(ccc31)-c1cc(O)cc(c1)C[C@H](NC(=O)[C@H](C(C)C)N(C)C(=O)CN(C)C(=O)[C@H]1N[C@H]1C1CCC1)C(=O)N1CCC[C@H](N1)C(=O)OCC(C)(C)C2 [Example 288] | 100 to 1000 | < 5000 | 10 to 100 | – |
| CCn1c(-c2cccnc2[C@H](C)OC)c2c3cc(ccc31)-c1cc(O)cc(c1)C[C@H](NC(=O)[C@H](C1CCCC1)N(C)C(=O)[C@@H](C)N(C)C(=O)[C@@H]1N[C@@H]1C1CC1)C(=O)N1CCC[C@H](N1)C(=O)OCC(C)(C)C2 [Example 327] | – | – | – | IC50 [7]: 1000 to 10000 nM |
